According to article PMC12552953, “SA-XV, a 15-amino acid fragment of host defense peptide S100A12, targets mitochondria and is protective against fungal infections” (The Journal of Biological Chemistry, 2025):
Like-named read-outs stand apart in the source and are kept apart here. Where no end group is shown, it is not given here.

Columns and labels:
[1] = test system: T7 RNA polymerase, plasmid DNA; test: In vitro transcription assay; assay type: biochemical; conditions: 2 h, 37 °C, agarose gel
Method: In vitro transcription assay was done using the commercial kit Riboprobe System-T7 (Promega), according to the instructions for positive control samples but adding different concentrations of peptide to the reactions. As a negative control, the DNA template was omitted from the reaction mix. After 2 h of incubation at 37 °C, samples were run in a 1.2% agarose gel in TAE buffer and imaged using the Gel Doc System (Bio-Rad).

F. solani = test: Murine model of F. solani keratitis; conditions: 48 h postinfection; SA-XV at 0 and 6 h or 6 and 18 h, AmpB at 0 and 6 h
Method: C57BL/6 mice (6–8 weeks old) were anesthetized by intraperitoneal injection using ketamine (8.7 mg/ml) and xylazine (0.5 mg/ml) at a dose of 120 μl/g body weight. While anesthetized, the corneal epithelium was abraded with three parallel vertical and horizontal scratches with a 26-gauge needle, and F. solani (10^7 conidia in 2.5 μl) were added in one eye, whereas the fellow eye received 1× PBS (n = 5). […] One more group of mice (n = 5) was infected with F. solani followed by topical application of AmpB (5 μg) at 0 and 6 h postinfection. Mice were euthanized and examined under a stereomicroscope for density and area of corneal opacification or ulceration 48 h postinfection and photographed using a digital camera. Clinical scores for the opacity were determined in a blinded fashion according to the scale earlier reported ([90]), eyes were enucleated and homogenized using a tissue homogenizer (Ez-Lyzer; Genetix Biotech) in sterile 1× PBS, and homogenates were plated on PDA plates for determining CFUs.

Candida albicans = assay type: cell-based; conditions: 48 h
Method: (§1) The ocular clinical isolates of F. solani (n = 5) and C. albicans (n = 5) were obtained from Jhaveri Microbiology Centre, LVPEI, India. The isolates were grown at 29 °C in Sabouraud dextrose broth (SDB; Himedia) for 48 h. Fusarium conidia (spores) were harvested as described before ([69]), centrifuged at 8000 rpm for 15 min to pellet the conidia, washed in 10 mM phosphate buffer (pH 7.4) twice, and resuspended in the same. Candida was grown in SDB overnight, centrifuged, washed, and resuspended similarly. F. solani and C. albicans (1 × 10^4 conidia) were grown in the presence or absence of different concentrations of SA-XV in SDB in a 96-well microtiter plate and incubated at 29 °C for 24 h. Negative controls consisting of fungus only and a positive control consisting of fungus treated with AmpB (55 μM) were incubated simultaneously. The culture was then diluted accordingly and plated in potato dextrose agar (PDA) plates and incubated further for 24 h. The effect of the peptide was determined by quantifying the CFUs on the PDA plates. The effect of SA-XV on A. flavus was also determined similarly. All the experiments were performed at least thrice and in triplicate.

Fusarium solani = assay type: cell-based; conditions: 48 h
Method: as §1

[2] = test system: Fusarium spp. ocular clinical isolates; assay type: cell-based; conditions: 48 h
Method: as §1

[3] = test system: C. albicans ocular clinical isolates; assay type: cell-based, Candida albicans; conditions: 48 h
Method: as §1

C. albicans biofilm = assay type: cell-based, Candida albicans; conditions: 24 h, 60 μM
in vitro [4] = assay type: cell-based, human; conditions: human
Method: (§2) Supplementary experimental procedures
(§3) Cell culture and in vitro scratch assay
(§4) Aldrich, St. Louis, MO) as described earlier (3). In brief, cells (2x10^4 cells/well) were seeded into 96 well plates and cultured overnight. Cells were treated with different concentration of […]
(§5) reader SpectraMax M3 (Softmax Pro 6.3). […]

[5] = test system: human corneal epithelial cells (HCEC); test: in vitro; assay type: cell-based
Method: as §2, §3, §4, §5

[6] = test system: peripheral blood mononuclear cells (PBMC); assay type: cell-based
Method: as §2, §3, §4, §5

[7] = test system: sinonasal epithelial cells (SNEC); assay type: cell-based
Method: as §2, §3, §4, §5

chorioallantoic membrane = test system: chorioallantoic membrane; design: species or system hen
Method: as §2
Cell culture and in vitro scratch assay […]
SA-XV was added directly onto the chorioallantoic
M sodium hydroxide solution.

C. albicans = assay type: cell-based, Candida albicans
Method: Fusarium spp. or Candida spp. (1 × 10^4 conidia) were incubated with 60 μM of FITC-SA-XV at 4 °C or 29 °C or different time points in SDB. The conidia were then washed three times with Milli-Q water and fixed using 4% paraformaldehyde. In some experiments, DAPI (Vectashield) or MitoTracker (Invitrogen) were used to stain specific cell organelles. In a different experiment, cytochrome c was detected in peptide-treated or untreated cells by incubating with anti–cytochrome c antibody (1:100 dilution; BioLegend), followed by Alexa Fluor 488 secondary antibody (1:1000 dilution; Thermo Fisher Scientific). In a separate experiment, the spores were incubated with SA-XV for 4 h in the presence or absence of FD (SR LifeScience Solution) of different molecular weights, washed with Milli-Q water, and fixed using 4% paraformaldehyde. The conidia were imaged using a 63× objective in a confocal microscope (LSM 880; Zeiss).

[8] = increased concentration of SA-XV
Method: Fungal model membrane mimics composing 5:4:3 POPC/POPE/ERG were created following the standard protocol. […] The lipid film was created after drying in a stream of nitrogen gas and lyophilizing overnight. The lipid film was then hydrated with 70 mM calcein dissolved in 10 mM Tris buffer (pH 7.4), followed by vigorous vortexing for 30 min and subjecting to five freeze–thaw cycles in liquid nitrogen and lukewarm water to obtain the dye-entrapped vesicles. The vesicles were then passed through a 100-nm polycarbonate membrane filter stacked in a mini extruder (Avanti Polar Lipids) set up to obtain LUVs. […]
Dye-encapsulated liposomes were suspended in an extravesicular buffer containing 10 mM Tris buffer and 100 mM NaCl (pH 7.4). The leakage of calcein caused by liposome disruption was analyzed by fluorescence emission at 519 nm using a JASCO F-8500 fluorescence spectrophotometer. […] S100A12 was added at functional concentrations, and enhancement in fluorescence was measured. […] Percentage leakage was calculated using the equation. […]
where, F0, F, and FT denote the basal fluorescence intensity, fluorescence intensity after addition of peptides, and maximum fluorescence intensity obtained after addition of 0.1% Triton X-100, respectively.

[9] = peptide-free 41.6 ppm
Method: A single 90° pulse ^31P solid-state NMR experiment was performed on an Agilent NMR spectrometer (DD2) equipped with a 4 mm MAS HXY Solid Probe. Resonance frequencies were 699.88 MHz and 283.31 MHz for ^1H and ^31P, respectively. The TPPM ^1H-decoupled condition was used. LUVs were kept in a diameter of 4 mm Pyrex glass tube sealed with parafilm at an ambient temperature. ^31P spectra were collected with 512∼1000 scans and a recycle delay of 2 s. The spectra were referenced externally to 85% phosphoric acid (0 ppm).
^31P solid-state NMR experiments were performed using the Agilent NMR spectrometer (DD2) functioning at the resonance frequency of 283.31 MHz for ^31P and 699.88 MHz for ^1H, equipped with a 4 mm MAS HXY Solid Probe. MLVs were prepared by dissolving POPC, POPE, and ERG (5:4:3) in chloroform to obtain a stock of 5 mg/ml. The lipid mixtures were dried under nitrogen gas, lyophilized overnight followed by dissolving the lipid film in Tris buffer (pH 7.4), and hydrated for 1 h by vortexing occasionally and freeze–thawing five times. A single 90◦ pulse and 24 kHz TPPM proton decoupling were used. The π/2 pulse lengths were set at 6.8 μs for the ^31P nucleus. MLVs were kept in a 4 mm Pyrex glass tube, which was fit into the MAS probe, and sealed with parafilm. […] MestReNova software (version 8.1) with 250 Hz line broadening was used for spectra processing.

[10] = n = 3
in vitro [11] = conditions: 25% fetal bovine serum in RPMI media
Method: mentioned previously (5).
supplemented with 25% FBS at 37 °C for 15 min. 100 µl aliquots were taken at different time
intervals (0, 30, 60, 120, 180, and 240 min). 200 µl of 96% ethanol was added to precipitate the
serum followed by centrifugation at 12000 x g for 2 min. 20 µl of the supernatant was subjected
to a LC-20AT reverse phase HPLC system (SHIMADZU, Japan) equipped with Phenomenix
C18 column (250x10 mm, pore size 100 Å, particle size 5 µm), at room temperature, using
acetonitrile and water with 0.1 % TFA as the solvents. A flow rate of 1ml/min was maintained.
The percentage of peptide remaining in the supernatant at different time intervals were analysed
by peak integration using SPINCHROME CFR software, and the area obtained was normalized with respect to the free peptide.

| Compound | RNA synthesis in vitro [1] | corneal opacification (F. solani) | MIC90 (Candida albicans) | MIC90 (Fusarium solani) | % Growth Inhibition by SA-XV (60 μM) [2] | % Growth Inhibition by SA-XV (60 μM) [3] | inhibition of biofilm formation (C. albicans biofilm) | IC50 at 24 h (in vitro [4]) | cytotoxicity [5] | cytotoxicity [6] | cytotoxicity [7] | irritation effect (chorioallantoic membrane) | translocation into fungal cells (C. albicans) | penetration into HCECs (HCECs) | dye leakage from fungal-membrane liposomes [8] | chemical shift anisotropy span ([9]; 1 mol% peptide) | chemical shift anisotropy span ([9]; 3 mol% peptide) | histopathology of corneal sections [10] | corneal findings ([10]; peptide four times at 3 h interval for 2 days, no edema or hyperemia) | half-life at 1 mg/ml (in vitro [11]) |
| --- | --- | --- | --- | --- | --- | --- | --- | --- | --- | --- | --- | --- | --- | --- | --- | --- | --- | --- | --- | --- |
| C[C@@H]1[C@H](O)[C@@H](C)/C=C/C=C/C=C/C=C/C=C/C=C/C=C/[C@H](O[C@@H]2O[C@H](C)[C@@H](O)[C@H](N)[C@@H]2O)C[C@@H]2O[C@](O)(C[C@@H](O)C[C@@H](O)[C@H](O)CC[C@@H](O)C[C@@H](O)CC(=O)O[C@H]1C)C[C@H](O)[C@H]2C(=O)O [AmpB, amphotericin B] | did not show any appreciable effect | Distinct reduced opacification |  |  |  |  |  |  |  |  |  |  |  |  |  |  |  |  |  |  |
| VAIALKAAHYHTHKE [SA-XV] |  |  | 15 µM | 15 µM | 99.99% | 99.99% | more than 70% | 302 µM | did not show any substantial cytotoxicity | did not show any substantial cytotoxicity | did not show any substantial cytotoxicity | nonirritant | translocates | to some extent | Increased dye leakage | 44.6 ppm | 46.4 ppm | no damages or abnormalities | no corneal erosions or opacity | > 3 h |
